Literature values as cited in patent US20060094734A1, “Composition and method for inducing alertness” (priority 2004, published 2006).

Test system: rats
Settings: rat, in vivo

Compound: NCCS(=O)(=O)O [taurine, 2-aminoethanesulfonic acid]
- LD 50: greater than 5,000 mg/kg
